Measured values taken from patent US7511159B2, “Azetidine ring compounds and drugs comprising the same” (Ono Pharmaceutical Co., Ltd., priority 2003, dated 2009).

Molecular target: T1, human EDG-5 (Homo sapiens, UniProt O95136)
T1 construct: expressed in transfected cells; host or cells: Chinese hamster ovary (CHO) cells
Assay: Evaluation of antagonistic activity for EDG-5 by monitoring the concentration change of intracellular calcium ion
Type: cell-based
Conditions: CHO cells overexpressing human EDG-5 gene, S1P 100 nM stimulation, Fura2, read-out: IC50 value (concentration showing an inhibition rate of 50%)
Procedure: Evaluation of Antagonistic Activity for EDG-5 by Monitoring the Concentration Change of Intracellular Calcium Ion
Chinese hamster ovary (CHO) cells in which human EDG-5 gene was overexpressed were cultured in Ham's F12 medium (GIBCO BRL) containing 10% FBS (fetal bovine serum), penicillin/streptomycin. and blasticidin (5 μg/mL). Thus cultured cells were incubated in a Fura2 (5 μM)-AM solution [Ham's F12 medium containing FBS (10%), HEPES buffer (20 mM, pH7.4), and probenecid (2.5 mM)] at 37° C. for 60 minutes. Then the cells were washed once with a Hanks' solution (2.5 mM) containing probenecid and immersed into the Hanks' solution. A plate was set on a fluorescent drug screening system, and the concentration of intracellular calcium ion was measured for 30 seconds with no stimulation. A solution of a compound (dimethyl sulfoxide (DMSO) solution of 1 nM to 10 μM at the final concentration) to be tested was added. After lapse of 5 minutes, S1P (final concentration: 100 nM) was added, the concentration of intracellular calcium ion before and after the addition of SiP was measured every 3 seconds (excitation wave length: 340 nm and 380 nm; fluorescent wave length: 500 nm). […]

T1 sequence (O95136 whole entry): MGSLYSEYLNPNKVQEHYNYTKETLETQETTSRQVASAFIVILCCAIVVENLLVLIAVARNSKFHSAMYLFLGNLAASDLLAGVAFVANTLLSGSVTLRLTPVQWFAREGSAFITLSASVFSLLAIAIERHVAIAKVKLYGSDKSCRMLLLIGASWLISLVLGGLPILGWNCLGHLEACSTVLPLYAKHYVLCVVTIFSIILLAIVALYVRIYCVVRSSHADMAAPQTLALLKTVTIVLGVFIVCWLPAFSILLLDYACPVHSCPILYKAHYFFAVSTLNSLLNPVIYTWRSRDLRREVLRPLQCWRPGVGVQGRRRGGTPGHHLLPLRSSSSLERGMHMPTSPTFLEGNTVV

IC50: 950 nM
Compound: CCN(c1ccccc1)C1CN(C(=O)Nc2cc(C(F)(F)F)cc(C(F)(F)F)c2)C1 [Example 3(18), N-[3,5-Bis(trifluoromethyl)phenyl]-3-[ethyl(phenyl)amino]azetidine-1-carboxamide]
